Target: T1, human recombinant mGluR5 (Homo sapiens, UniProt P41594)
T1 construct: expressed in transfected cells; host or cells: HEK 293
Test: positive modulation of mGluR5, calcium based FLIPR assay
Settings: HEK 293 cell line expressing human recombinant mGluR5; EC50 of the modulation from peak Ca fluorescence signal after glutamate at approx. 5% basal stimulation
How it was run: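 HEK 293 cells expressing human recombinant mGluR5, Calcium-4 dye-loaded in Ringer solution pH 7.4. Compound (1% DMSO final) preincubated 5 min, then glutamate at ~5% of maximal effect added; peak Ca2+ fluorescence gives EC50 by nonlinear regression, normalized to DMSO (100%) and 10 μM CDPPB (200%) controls.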

T1 sequence (P41594 21-1212): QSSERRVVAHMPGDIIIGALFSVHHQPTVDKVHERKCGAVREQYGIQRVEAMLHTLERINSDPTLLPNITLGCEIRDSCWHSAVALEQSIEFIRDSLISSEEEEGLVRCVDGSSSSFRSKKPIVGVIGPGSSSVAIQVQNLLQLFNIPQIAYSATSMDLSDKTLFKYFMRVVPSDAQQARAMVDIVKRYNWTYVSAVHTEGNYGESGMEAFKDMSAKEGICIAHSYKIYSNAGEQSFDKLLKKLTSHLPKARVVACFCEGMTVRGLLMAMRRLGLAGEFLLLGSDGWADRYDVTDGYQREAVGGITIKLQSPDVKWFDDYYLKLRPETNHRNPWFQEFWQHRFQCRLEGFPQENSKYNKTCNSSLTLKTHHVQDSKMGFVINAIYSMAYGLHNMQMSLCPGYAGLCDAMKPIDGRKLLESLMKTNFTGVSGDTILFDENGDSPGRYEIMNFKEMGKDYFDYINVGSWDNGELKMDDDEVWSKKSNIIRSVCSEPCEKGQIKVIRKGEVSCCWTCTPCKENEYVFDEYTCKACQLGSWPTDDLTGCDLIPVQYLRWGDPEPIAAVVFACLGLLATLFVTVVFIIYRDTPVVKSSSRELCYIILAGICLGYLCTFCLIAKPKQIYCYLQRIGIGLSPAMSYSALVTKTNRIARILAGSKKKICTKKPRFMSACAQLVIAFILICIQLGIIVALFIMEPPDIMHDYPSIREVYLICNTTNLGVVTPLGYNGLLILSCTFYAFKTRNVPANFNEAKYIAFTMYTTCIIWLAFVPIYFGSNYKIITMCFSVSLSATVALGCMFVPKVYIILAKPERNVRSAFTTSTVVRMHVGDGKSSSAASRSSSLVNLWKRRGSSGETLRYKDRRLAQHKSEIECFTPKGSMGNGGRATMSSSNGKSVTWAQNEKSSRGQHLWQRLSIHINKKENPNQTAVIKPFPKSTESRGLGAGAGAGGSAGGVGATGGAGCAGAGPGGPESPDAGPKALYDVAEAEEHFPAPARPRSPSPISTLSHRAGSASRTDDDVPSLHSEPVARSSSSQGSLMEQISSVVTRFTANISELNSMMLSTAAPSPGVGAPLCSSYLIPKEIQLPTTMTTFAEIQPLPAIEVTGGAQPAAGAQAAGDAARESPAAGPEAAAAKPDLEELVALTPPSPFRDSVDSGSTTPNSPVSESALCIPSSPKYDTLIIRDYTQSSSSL

| SMILES | EC50 [µM] |
| --- | --- |
| N#Cc1ccc2c(c1)CN(C(=O)Cn1nc(-c3ccccc3)cc1-c1ccccc1)CC2 [Example 7.01.031] | 1.87 |
| CCc1cc(-c2ccc(F)cc2)nn1CC(=O)N1Cc2nc(C)sc2C1 [Example 7.02.031] | 1.24 |
| Cc1nc2c(o1)CCN(C(=O)Cn1nc(-c3ccc(F)c(C)c3)cc1-c1ccccc1)C2 [Example 7.01.085] | 0.026 |
| O=C(Cn1nc(-c2ccccc2)cc1-c1ccccc1)N1CCN(c2noc3ccccc23)CC1 [Example 7.01.016] | 0.143 |
| O=C(Cn1nc(-c2ccccc2)cc1-c1ccccc1)N1CCN(c2ccc(F)cc2)C(=O)C1 [Example 7.01.019] | 1.66 |
| CCc1cc(-c2cccc(C)c2)nn1CC(=O)N1CCc2nc(N)sc2CC1 [Example 7.02.079] | 0.182 |
| Cc1nc2c(s1)CN(C(=O)Cn1nc(-c3ccc(F)cn3)cc1-c1ccc(F)cc1)C2 [Example 7.02.059] | 0.287 |
| Cc1nc2c(s1)CCN(C(=O)Cn1nc(-c3ccc(F)c(C)c3)cc1-c1ccccc1)CC2 [Example 7.02.015] | 0.015 |
| COc1ccc2c(c1)CN(C(=O)Cn1nc(-c3ccccc3)cc1-c1ccccc1)CC2 [Example 7.01.007] | 1.54 |
| Nc1nc2c(s1)CCN(C(=O)Cn1nc(-c3ccc(F)cc3)cc1-c1ccc(F)cc1)CC2 [Example 7.02.001, 1-(2-Amino-4,5,7,8-tetrahydro-thiazolo (4,5-d)azepin-6-yl)-2-[3,5-bis-(4-fluoro-phenyl)-pyrazol-1-yl]-ethanone] | 0.055 |
| CCc1cc(-c2ccc(F)c(C)c2)nn1CC(=O)N1CCc2nc(OC)sc2CC1 [Example 7.01.054] | 0.053 |
| CCc1cc(-c2ccc(F)c(C)c2)nn1CC(=O)N1CCc2ncsc2CC1 [Example 7.01.073] | 0.084 |
| COc1ccc2c(c1)CCN(C(=O)Cn1nc(-c3ccc(F)c(C)c3)cc1-c1ccccc1)CC2 [Example 7.01.083] | 0.086 |
| COCc1cc(-c2ccc(F)c(C)c2)nn1CC(=O)N1Cc2nc(C)sc2C1 [Example 7.01.058] | 0.279 |
| CCc1cc(-c2ccc(F)c(C)c2)nn1CC(=O)N1CCc2nc(C)oc2C1 [Example 7.01.077] | 0.11 |
| O=C(Cn1nc(-c2ccccc2)cc1-c1ccccc1)N1CCc2c(cccc2C(F)(F)F)C1 [Example 7.01.045] | 0.689 |
| O=C(Cn1nc(-c2ccccc2)cc1-c1ccccc1)N1CCc2cc(F)ccc2C1 [Example 7.01.027] | 1.02 |
| CCc1cc(-c2ccc(C)c(C)c2)nn1CC(=O)N1CC=C(c2ncc(OC)cn2)CC1 [Example 7.02.076] | 0.293 |
| CCc1cc(-c2ccc(F)c(C)c2)nn1CC(=O)N1CCc2nc(N)sc2CC1 [Example 7.02.026] | 0.083 |
| O=C(Cn1nc(-c2ccccc2)cc1-c1ccccc1)N1CCN(c2nnc(C(F)(F)F)s2)CC1 [Example 7.01.037] | 0.188 |
| CCc1cc(-c2ccc(F)cc2)nn1CC(=O)N1CCN(c2cccc(OC)c2)C(=O)C1 [Example 7.02.028] | 0.943 |
| CCc1cc(-c2ccc(F)c(C)c2)nn1CC(=O)N1CCc2nc(C)sc2CC1 [Example 7.02.024] | 0.029 |
| Cc1cc(-c2cc(-c3ccccc3)n(CC(=O)N3CCc4ccccc4CC3)n2)ccc1F [Example 7.01.090] | 0.24 |
| O=C(Cn1nc(-c2ccccc2)cc1-c1ccccc1)N1CCc2ncsc2CC1 [Example 7.02.004] | 0.689 |

Results, then the compound that gave them:

| EC50 [µM] | SMILES |
| --- | --- |
| 0.019 | COc1cc(C2=CCN(C(=O)Cn3nc(-c4cccc(C)c4)cc3-c3ccccc3)CC2)ncn1 [Example 7.02.202] |
| 0.018 | Cc1cc(-c2cc(-c3ccccc3)n(CC(=O)N3CC=C(c4ncc(F)cn4)CC3)n2)ccc1F [Example 7.02.099] |
| 0.044 | Cc1csc(N2CCN(C(=O)Cn3nc(-c4ccc(F)c(C)c4)cc3-c3ccccc3)CC2)n1 [Example 7.02.159] |
| 0.016 | Cc1nc2c(o1)CN(C(=O)Cn1nc(-c3ccc(C(F)F)cc3)cc1-c1ccccc1)C2 [Example 7.02.257] |
| 0.023 | Cc1nc2c(s1)CN(C(=O)Cn1nc(-c3ccc(OC(F)F)cc3)cc1-c1ccccc1)C2 [Example 7.02.222] |
| 0.07 | CCc1cc(-c2ccc(F)c(C)c2)nn1CC(=O)N1CCC(c2ncc(C)o2)CC1 [Example 7.02.207] |
| 0.404 | CCc1cc(-c2cccc(Cl)c2)nn1CC(=O)N1CCN(c2nnc(C)o2)CC1 [Example 7.02.112] |
| 0.007 | CCc1nc2c(o1)CN(C(=O)Cn1nc(-c3ccc(F)c(C)c3)cc1-c1ccccc1)C2 [Example 7.02.255] |
| 0.004 | Cc1nc2c(s1)CCN(C(=O)Cn1nc(-c3ccc(OC(F)F)cc3)cc1-c1ccccc1)CC2 [Example 7.02.221] |
| 0.015 | Cc1nc2c(s1)CCN(C(=O)Cn1nc(-c3cccc(C#N)c3)cc1-c1ccccc1)CC2 [Example 7.02.189] |
| 0.071 | Cc1ccc(-c2cc(-c3ccccc3)n(CC(=O)N3CCc4nc(N)sc4CC3)n2)nc1C [Example 7.02.123] |
| 0.038 | Cc1nc2c(o1)CN(C(=O)Cn1nc(-c3ccc(F)c(C)n3)cc1-c1ccccc1)C2 [Example 7.02.173] |
| 0.08 | Cc1nc2c(s1)CN(C(=O)Cn1nc(-c3cccc(C#N)c3)cc1-c1ccccc1)C2 [Example 7.02.191] |
| 0.041 | Cc1nc2c(s1)CN(C(=O)Cn1nc(-c3ccc(C)c(C)c3)cc1-c1ccccc1)C2 [Example 7.02.090] |
| 0.046 | CCc1cc(-c2ccc(F)c(C)c2)nn1CC(=O)N1CCc2nc(OC)sc2CC1 [Example 7.02.164] |
| 0.878 | CCc1cc(-c2ccc(F)c(C)c2)nn1CC(=O)N1Cc2cccnc2C1 [Example 7.02.230] |
| 0.171 | COc1cc(C2CCN(C(=O)Cn3nc(-c4cccc(C)c4)cc3-c3ccccc3)CC2)ncn1 [Example 7.02.201] |
| 0.029 | N#Cc1cccc(-c2cc(-c3ccccc3)n(CC(=O)N3CCc4nc(N)sc4CC3)n2)c1 [Example 7.02.190] |
| 0.063 | Cc1cnc(C2CCN(C(=O)Cn3nc(-c4cccc(C#N)c4)cc3-c3ccccc3)CC2)o1 [Example 7.02.194] |
| 0.068 | Cc1nc2c(s1)CN(C(=O)Cn1nc(-c3ccc(C)c(C)n3)cc1-c1ccccc1)C2 [Example 7.02.124] |
| 0.059 | COc1cnc(C2CCN(C(=O)Cn3nc(-c4ccc(C)c(C)c4)cc3-c3ccccc3)CC2)nc1 [Example 7.02.089] |
| 0.039 | CCc1cc(-c2cccc(Cl)c2)nn1CC(=O)N1CC=C(c2ncc(C)o2)CC1 [Example 7.02.107] |
| 0.023 | CCc1nnc(N2CCN(C(=O)Cn3nc(-c4ccc(F)c(C)c4)cc3-c3ccccc3)CC2)o1 [Example 7.02.160] |
| 0.049 | Cc1nc2c(s1)CN(C(=O)Cn1nc(-c3ccc(F)c(C)c3)cc1CC(C)C)C2 [Example 7.02.121] |
| 0.008 | Cc1nnc(C2=CCN(C(=O)Cn3nc(-c4ccc(F)c(C)c4)cc3-c3ccccc3)CC2)o1 [Example 7.02.115] |
| 0.011 | CCCc1cc(-c2ccc(F)c(C)c2)nn1CC(=O)N1Cc2nc(C)oc2C1 [Example 7.02.214] |

Reference: patent US8741892B2, “Compounds” (Boehringer Ingelheim International GmbH, priority 2011, dated 2014)
